According to patent US20070128217A1 (priority 2003, published 2007):

Legend:
[1] = system: antibodies in sera from SARS patients (sera 1a, 1b, 2, 6, 37, 62, London, SARS-yellow, SARS-green); format: binding, human; set-up: Binding of serum 6 to linear peptides of protein X1 of SARS-CoV Urbani / Binding of serum 37 to linear peptides of protein X1 of SARS-CoV Urbani / Binding of serum 6 to looped/cyclic peptide (PEPSCAN-ELISA) / Binding of serum 37 to looped/cyclic peptide (PEPSCAN-ELISA) / Binding of serum 37 to looped/cyclic peptides of protein X1 of SARS-CoV Urbani / Binding of serum 6 to linear peptides of protein X2 / Binding of serum 37 to linear peptides of protein X2 / Binding of serum 37 to looped/cyclic peptides of protein X2 of SARS-CoV Urbani / Binding of serum 6 to linear peptides of protein M of SARS-CoV Urbani / Binding of serum 37 to linear peptides of protein M of SARS-CoV Urbani / Binding of serum 6 to looped/cyclic peptides of protein M of SARS-CoV Urbani / Binding of serum 37 to looped/cyclic peptides of protein M of SARS-CoV Urbani / Binding of serum 6 to linear peptides of protein X3 of SARS-CoV Urbani / Binding of serum 37 to linear peptides of protein X3 of SARS-CoV Urbani / Binding of serum 37 to looped/cyclic peptides of protein X3 of SARS-CoV Urbani / Binding of serum 6 to linear peptides of protein X4 of SARS-CoV Urbani / Binding of serum 37 to linear peptides of protein X4 of SARS-CoV Urbani / Binding of serum 37 to looped/cyclic peptides of protein X4 of SARS-CoV Urbani / Binding of serum 6 to linear peptides of protein X5 of SARS-CoV Urbani / Binding of serum 37 to linear peptides of protein X5 of SARS-CoV Urbani / Binding of serum 37 to looped/cyclic peptides of protein X5 of SARS-CoV Urbani / Binding of serum 6 to linear peptides of protein N of SARS-CoV Urbani / Binding of serum 37 to linear peptides of protein N of SARS-CoV Urbani / Binding of serum 6 to linear peptide (PEPSCAN-ELISA) / Binding of serum 1a to looped/cyclic peptides of protein N of SARS-CoV Urbani / Binding of serum 1b to looped/cyclic peptides of protein N of SARS-CoV Urbani / Binding of serum 2 to looped/cyclic peptides of protein N of SARS-CoV Urbani / Binding of serum 6 to looped/cyclic peptides of protein N of SARS-CoV Urbani / Binding of serum 37 to looped/cyclic peptides of protein N of SARS-CoV Urbani / Binding of serum 62 to looped/cyclic peptides of protein N of SARS-CoV Urbani / Binding of serum London to looped/cyclic peptides of protein N of SARS-CoV Urbani / Binding of serum SARS-green to looped/cyclic peptides of protein N of SARS-CoV Urbani: unit not given here
[2] = system: rabbit serum obtained by immunizing a rabbit with the SARS-CoV strain Frankfurt 1; format: binding; set-up: Binding of a rabbit serum to linear peptides / Binding of a rabbit serum to looped peptides / Rabbit serum linear peptides / Rabbit serum looped peptides / Binding of a rabbit serum to linear peptides of protein N of SARS-CoV Urbani (Rabbit serum linear peptides) / Binding of a rabbit serum to looped/cyclic peptides of protein N of SARS-CoV Urbani (Rabbit serum looped peptides): unit not given here
[3] = system: recombinant human anti-SARS-CoV antibody 03-018; format: binding; set-up: Binding of antibody 03-018 to linear peptides of the N protein of SARS-CoV Urbani / Binding of antibody 03-018 to looped/cyclic peptides of the N protein of SARS-CoV Urbani: unit not given here
[4] = system: control sera (pooled serum of ten healthy LUMC hospital workers; commercial negative donor pooled serum from the Dutch bloodbank); format: binding, human; set-up: Binding of Control serum LUMC to linear peptides / Binding of Control serum Blood-bank to linear peptides / Binding of Control serum LUMC to looped peptides / Binding of Control Serum Blood-Bank to Looped peptides / Binding of Control serum LUMC to linear peptides of the protein M of SARS-CoV Urbani / Binding of Control serum Blood-bank to linear peptides of the protein M of SARS-CoV Urbani / Binding of Control serum LUMC to looped peptides of the protein M of SARS-CoV Urbani / Binding of Control Serum Blood-Bank to Looped peptides of the protein M of SARS-CoV Urbani: unit not given here

Sequence | Binding of serum 1a to linear peptides of protein N of SARS-CoV Urbani [1] | Binding of serum 1a to looped/cyclic peptides of protein N of SARS-CoV Urbani [1] | Binding of serum 1b to linear peptides of protein N of SARS-CoV Urbani [1] | Binding of serum 1b to looped/cyclic peptides of protein N of SARS-CoV Urbani [1] | Binding of serum 2 to linear peptides of protein N of SARS-CoV Urbani [1] | Binding of serum 2 to looped/cyclic peptides of protein N of SARS-CoV Urbani [1] | Binding of serum 6 to linear peptides of protein N of SARS-CoV Urbani [1] | Binding of serum 6 to looped/cyclic peptides of protein N of SARS-CoV Urbani [1] | Binding of serum 37 to linear peptides of protein N of SARS-CoV Urbani [1] | Binding of serum 37 to looped/cyclic peptides of protein N of SARS-CoV Urbani [1] | Binding of serum 62 to linear peptides of protein N of SARS-CoV Urbani [1] | Binding of serum 62 to looped/cyclic peptides of protein N of SARS-CoV Urbani [1] | Binding of serum London to linear peptides of protein N of SARS-CoV Urbani [1] | Binding of serum London to looped/cyclic peptides of protein N of SARS-CoV Urbani [1] | Binding of serum SARS-green to linear peptides of protein N of SARS-CoV Urbani [1] | Binding of serum SARS-green to looped/cyclic peptides of protein N of SARS-CoV Urbani [1] | Binding of serum SARS-yellow to linear peptides of protein N of SARS-CoV Urbani [1] | Binding of serum SARS-yellow to looped/cyclic peptides of protein N of SARS-CoV Urbani [1] | Binding of a rabbit serum to linear peptides of protein N of SARS-CoV Urbani (Rabbit serum linear peptides) [2] | Binding of a rabbit serum to looped/cyclic peptides of protein N of SARS-CoV Urbani (Rabbit serum looped peptides) [2] | other results
DDFSRQLQNSMSGAS | 0.2 | 0.3 | 0.1 | 0.1 | 0.2 | 0.3 | 0.2 | 0.1 | 0.8 | 0.4 | 0.7 | 0.3 | 0.7 | 0.2 | 0.4 | 0.2 | 0.6 | 0.1 | 0.5 | 0.3 | Binding of antibody 03-018 to linear peptides of the N protein of SARS-CoV Urbani [3]: 0.2; Binding of antibody 03-018 to looped/cyclic peptides of the N protein of SARS-CoV Urbani [3]: 0.2; Control Serum Blood-Bank Looped peptides [4]: 0.3; Control serum Blood-bank linear peptides [4]: 0.8; Control serum LUMC linear peptides [4]: 0.6; Control serum LUMC looped peptides [4]: 0.3
DEAQPLPQRQKKQPT | 0.2 | 0.2 | 0.2 | 0.1 | 0.3 | 0.2 | 0.3 | 0.1 | 0.8 | 0.3 | 0.7 | 0.2 | 1.5 | 0.3 | 0.6 | 0.0 | 1.6 | 0.2 | 0.1 | 0.0 | Binding of antibody 03-018 to linear peptides of the N protein of SARS-CoV Urbani [3]: 0.1; Binding of antibody 03-018 to looped/cyclic peptides of the N protein of SARS-CoV Urbani [3]: 0.2; Control Serum Blood-Bank Looped peptides [4]: 0.3; Control serum Blood-bank linear peptides [4]: 0.7; Control serum LUMC linear peptides [4]: 0.8; Control serum LUMC looped peptides [4]: 0.3
DLIRQGTDYKHWPQI | 0.2 | 0.4 | 0.1 | 0.2 | 0.2 | 0.4 | 0.2 | 0.2 | 0.6 | 0.6 | 0.6 | 0.6 | 0.9 | 0.4 | 0.4 | 0.2 | 0.6 | 0.3 | 0.0 | 0.5 | Binding of antibody 03-018 to linear peptides of the N protein of SARS-CoV Urbani [3]: 0.1; Binding of antibody 03-018 to looped/cyclic peptides of the N protein of SARS-CoV Urbani [3]: 0.2; Binding of Control Serum Blood-Bank to Looped peptides [4]: 0.5; Binding of Control serum Blood-bank to linear peptides [4]: 0.6; Binding of Control serum LUMC to linear peptides [4]: 0.5; Binding of Control serum LUMC to looped peptides [4]: 0.5
